Measured values from patent US20020107231A1, “Remedy for autoimmune diseases” (priority 1992, published 2002).
Where a name gives a salt, the structure may show the parent alone.

Assays:
Type in all cases: in vivo, mouse
MRL/Mp-lpr/lpr mice [1] = test: Inhibition of swelling of spleen and lymph node of MRL/Mp-lpr/lpr mice; conditions: 100 mg/kg orally once a day for 13 weeks
Protocol: (§1) Eight-week old female MRL/Mp-lpr/lpr mice (Clea Japan, Inc.) were used in this examination. Toremifene citrate (JP-B-4 19973) was suspended in carboxymethylcellulose to prepare a 0.5% suspension. This compound (100 mg/kg) was orally administered to each mouse once a day for 13 weeks.

MRL/Mp-lpr/lpr mice [2] = test: Suppression of renal disorder (glomerulonephritis score, BUN) of MRL/Mp-lpr/lpr mice; conditions: 100 mg/kg orally once a day for 13 weeks
Protocol: as §1
An autopsy was performed on the mice of the control group and the toremifene citrate treated group after the completion of the administration to examine their kidneys pathohistologically. The blood urea nitrogen (BUN) of the serum in each group was examined to confirm changes in the renal function.
1) The kidney was fixed in 10% buffered formalin, and then paraffin sections thereof were prepared by an ordinary method to prepare HE and PAS stained specimens. The extent of the disorder of the renal glomeruli was scored and classified into the following groups:
2) The BUN was determined with a Fuji Dry Chem Analyzer.

MRL/Mp-lpr/lpr mice [3] = test: Inhibition of sialadenitis, angitis and arthritis of MRL/Mp-lpr/lpr mice (histopathology); conditions: 100 mg/kg orally once a day for 13 weeks
Protocol: as §1
The salivary gland, renal blood vessel and knee joint of each mouse in the control group and the toremifene citrate treated group were histopathologically examined.
1) The salivary gland, kidney and knee joint were fixed in 10% buffered formalin, and then paraffin sections thereof were prepared by an ordinary method to prepare HE and PAS stained specimens. The extent of the disorder was scored and classified into the following groups: […]

MRL/Mp-lpr/lpr mice [4] = test: Suppression of glomerulonephritis (Mac 2 number per glomerulus) by concomitant use of toremifene citrate with glucocorticoid; conditions: for change in Mac 2 number as compared with the control (in words): all dose groups, 9 weeks, t-test
Protocol: Twelve-week old female MRL/Mp-lpr/lpr mice were used in the examination. Thirty miligrams per kg or 15 mg/kg of toremifene citrate (TOR) was orally administered to each mouse twice a day for 9 weeks from the 12th week to the 21st week. A glucocorticoid (prednisolone), 8, 4 and 2 mg/kg/day, were subcutaneously administered to mice once a day as a positive control drug. The concomitant use of tremifene with the glucocorticoid was also carried out according to the same regimen as above. The kidney was taken out from each mouse the day after the completion of the whole administration period and fixed in a PLP fixative. Frozen sections were made from the fixed kidney and used for an immunostaining with an anti-Mac-2 monoclonal antibody (Hybritec Inc., San Diego, USA). The number of Mac-2 positive cells (activated macrophages) invading each of 10 to 20 glomeruli of the kidney, which is hereinafter referred to as Mac 2 number, was counted under a microscopy to determine an average Mac 2 number per glomerulus. The degree of severeness of glomerulonephritis was estimated in terms of the average Mac 2 number (n=13 for each group).

[5] = tested on: NZB×NZW mice (B/W F1 mice); test: Comparison of survival time of NZB×NZW F1 mice; conditions: for animals alive after one year / animals died at/before the age of 40 weeks / animals still alive after almost two years' time: female mice; for animals alive after one year: female control 20%; for animals died at/before the age of 40 weeks: female control 50% died
Protocol: NZB×NZW mice (B/W F1 mice) were used as a pathological model of autoimmune diseases (systemic lupus erythematodes). Effect of toremifene citrate on the survival time of the animals was investigated.
F1-hybrids of NZB (female) and NZW (male) mice (B/W F1 mice): Imported from Bomholtgaard, Denmark at the age of five weeks.
Toremifene citrate 30 mg/kg/day: administration 70 mg/kg in polyethylene glycol solution 3 times a week per os to female NZB×NZW F1 mice
Toremifene citrate 3 mg/kg/day: administration 7 mg/kg in polyethylene glycol solution 3 times a week per os to female NZB×NZW F1 mice
All but two female control animals have died during the almost two years' follow-up time. Fifty percents of the animals in this group died before/at the age of 40 weeks, and 20% (4/20) were alive after one year.

[6] = 3 mg/kg/day (7 mg/kg 3 times a week per os)
[7] = 30 mg/kg/day (70 mg/kg 3 times a week per os)

## CN(C)CCOc1ccc(/C(=C(/CCCl)c2ccccc2)c2ccccc2)cc1 [Toremifene citrate, 2[4-(Z)-4-Chloro-1,2-Diphenyl-1-Butenyl]Phenoxy-N,N-Dimethylethylamine Citrate]
MRL/Mp-lpr/lpr mice [1]
  swelling of the spleen and lymph node (in words): inhibited the swelling of the spleen and lymph node
MRL/Mp-lpr/lpr mice [1]; 8-week old female mice, mean ± standard deviation, control 2.34 ± 0.74
  swelling of spleen ([formula]): 1.38 ± 1.06
MRL/Mp-lpr/lpr mice [1]; 8-week old female mice, mean ± standard deviation, control 6.77 ± 1.70
  swelling of lymph node ([formula]): 3.11 ± 1.43
MRL/Mp-lpr/lpr mice [2]
  glomerulonephritis (in words): ameliorated the glomerulonephritis
  renal function (in words): healed the renal function
MRL/Mp-lpr/lpr mice [2]; mean ± standard deviation, control 2.4 ± 0.7
  Glomerulonephritis (score 0-3, average of 25 renal glomeruli): 1.2 ± 0.7
MRL/Mp-lpr/lpr mice [2]; serum, mean ± standard deviation, control 43.1 ± 23.9
  BUN: 24.6 ± 4.9 mg/dL
MRL/Mp-lpr/lpr mice [3]
  attack by sialadenitis, angitis and arthritis (in words): prevented the mice from being attacked by sialadenitis, angitis and arthritis
MRL/Mp-lpr/lpr mice [3]; knee joint, mean ± standard deviation, control 1.6 ± 0.9
  Arthritis (score 0-3): 0.4 ± 0.5
MRL/Mp-lpr/lpr mice [3]; renal blood vessel, mean ± standard deviation, control 2.1 ± 0.7
  Angitis (score 0-3): 0.9 ± 0.8
MRL/Mp-lpr/lpr mice [3]; salivary gland, mean ± standard deviation, control 2.2 ± 0.6
  Sialadenitis (score 0-3): 0.9 ± 0.8
MRL/Mp-lpr/lpr mice [4]; TOR 15 mg/kg orally twice a day for 9 weeks, first series, control 7.5 ± 1.5
  Mac 2 number: 6.5 ± 1.2
MRL/Mp-lpr/lpr mice [4]; TOR 30 mg/kg orally twice a day for 9 weeks, first series, control 7.5 ± 1.5
  Mac 2 number: 6.2 ± 1.0
MRL/Mp-lpr/lpr mice [4]
  change in Mac 2 number as compared with the control (in words): did not exhibit any significant decrease in Mac 2 number
[5]; [6]
  animals alive after one year: 80%
  animals died at/before the age of 40 weeks: 1/20
[5]; [7]
  animals alive after one year: 85%
  animals died at/before the age of 40 weeks: 3/20
[5]; both treatment groups (3 and 30 mg/kg/day)
  life span compared to the female control animals (in words): lengthened clearly
[5]; higher dosage group (30 mg/kg/day)
  animals still alive after almost two years' time: 10%
[5]; lower dosage group (3 mg/kg/day)
  animals still alive after almost two years' time: 25%

## C[C@]12C=CC(=O)C=C1CC[C@@H]1[C@@H]2[C@@H](O)C[C@@]2(C)[C@H]1CC[C@]2(O)C(=O)CO [Prednisolone, prednisolone]
MRL/Mp-lpr/lpr mice [4]
  change in Mac 2 number as compared with the control (in words): did not exhibit any significant decrease in Mac 2 number
MRL/Mp-lpr/lpr mice [4]; prednisolone 2 mg/kg subcutaneously once a day for 9 weeks, first series, control 7.5 ± 1.5
  Mac 2 number: 9.4 ± 1.0
MRL/Mp-lpr/lpr mice [4]; prednisolone 2 mg/kg subcutaneously once a day for 9 weeks, second series, control 11.3 ± 1.2
  Mac 2 number: 7.7 ± 1.0
MRL/Mp-lpr/lpr mice [4]; prednisolone 4 mg/kg subcutaneously once a day for 9 weeks, first series, control 7.5 ± 1.5
  Mac 2 number: 7.9 ± 0.7
MRL/Mp-lpr/lpr mice [4]; prednisolone 4 mg/kg subcutaneously once a day for 9 weeks, second series, control 11.3 ± 1.2
  Mac 2 number: 9.1 ± 1.4
MRL/Mp-lpr/lpr mice [4]; prednisolone 8 mg/kg subcutaneously once a day for 9 weeks, first series, control 7.5 ± 1.5
  Mac 2 number: 5.8 ± 0.8
